Reference: article PMC4843002, “Identification of pyrazolopyridazinones as PDEδ inhibitors” (Nature Communications, 2016)

Tests used:
[1] = biological target: T1, interaction between mCitrine-KRas and mCherry-PDEδ (Homo sapiens, UniProt O43924); assay: FLIM-FRET, mCitrine-KRas/mCherry-PDEδ in MDCK cells after Bryostatin; type: cell-based, canine; conditions: 5 μM inhibitor after 1 μM Bryostatin-1, MDCK cells
T1 construct: expressed in transfected cells; host or cells: MDCK cells, transient transfection
T1 sequence (O43924 whole entry): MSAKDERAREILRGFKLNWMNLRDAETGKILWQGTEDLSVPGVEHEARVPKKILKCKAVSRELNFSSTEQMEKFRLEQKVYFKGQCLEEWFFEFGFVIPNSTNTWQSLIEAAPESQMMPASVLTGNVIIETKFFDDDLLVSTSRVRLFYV
Excerpt: To measure whether both inhibitors also affect the interaction of KRas with PDEδ, MDCK cells were transiently transfected with mCitrine-KRas and mCherry-PDEδ. […] To increase the fraction of KRas that interacts with PDEδ, the Protein Kinase C (PKC) activator Bryostatin, which induces serine (S181) phosphorylation on KRas[17], was applied, resulting in a reduced electrostatic interaction with the PM and increased cytosolic pool of mCitrine-KRas.
Fluorescence lifetime images were acquired using a confocal laser-scanning microscope (FV1000, Olympus) equipped with a time-correlated single-photon counting module (LSM Upgrade Kit, Picoquant). For detection of the donor (mCitrine), the sample was excited using a 470-nm diode laser (LDH 470, Picoquant) at a 36-MHz repetition frequency. […] Photons were detected using a single-photon counting avalanche photodiode (PDM Series, MPD) and timed using a single-photon counting module (PicoHarp 300, Picoquant).
Intensity thresholds were applied to segment the cells from the background fluorescence. Data were analysed via global analysis[23] to obtain images of the molar fraction (α) of interacting mCitrine-Rheb with mCherry-PDEδ. […] Dose–response relationships were determined by plotting obtained α per addition, using equation:

[2] = biological target: T2, CENP-E (h) (Homo sapiens, UniProt Q02224); assay: Cerep enzyme and cell-based assays; type: biochemical; conditions: read-out: % Inhibition of Control Values
T2 construct: Eurofins Pharma Discovery Services (CEREP diversity panel, outsourced assay)
T2 sequence (Q02224 whole entry): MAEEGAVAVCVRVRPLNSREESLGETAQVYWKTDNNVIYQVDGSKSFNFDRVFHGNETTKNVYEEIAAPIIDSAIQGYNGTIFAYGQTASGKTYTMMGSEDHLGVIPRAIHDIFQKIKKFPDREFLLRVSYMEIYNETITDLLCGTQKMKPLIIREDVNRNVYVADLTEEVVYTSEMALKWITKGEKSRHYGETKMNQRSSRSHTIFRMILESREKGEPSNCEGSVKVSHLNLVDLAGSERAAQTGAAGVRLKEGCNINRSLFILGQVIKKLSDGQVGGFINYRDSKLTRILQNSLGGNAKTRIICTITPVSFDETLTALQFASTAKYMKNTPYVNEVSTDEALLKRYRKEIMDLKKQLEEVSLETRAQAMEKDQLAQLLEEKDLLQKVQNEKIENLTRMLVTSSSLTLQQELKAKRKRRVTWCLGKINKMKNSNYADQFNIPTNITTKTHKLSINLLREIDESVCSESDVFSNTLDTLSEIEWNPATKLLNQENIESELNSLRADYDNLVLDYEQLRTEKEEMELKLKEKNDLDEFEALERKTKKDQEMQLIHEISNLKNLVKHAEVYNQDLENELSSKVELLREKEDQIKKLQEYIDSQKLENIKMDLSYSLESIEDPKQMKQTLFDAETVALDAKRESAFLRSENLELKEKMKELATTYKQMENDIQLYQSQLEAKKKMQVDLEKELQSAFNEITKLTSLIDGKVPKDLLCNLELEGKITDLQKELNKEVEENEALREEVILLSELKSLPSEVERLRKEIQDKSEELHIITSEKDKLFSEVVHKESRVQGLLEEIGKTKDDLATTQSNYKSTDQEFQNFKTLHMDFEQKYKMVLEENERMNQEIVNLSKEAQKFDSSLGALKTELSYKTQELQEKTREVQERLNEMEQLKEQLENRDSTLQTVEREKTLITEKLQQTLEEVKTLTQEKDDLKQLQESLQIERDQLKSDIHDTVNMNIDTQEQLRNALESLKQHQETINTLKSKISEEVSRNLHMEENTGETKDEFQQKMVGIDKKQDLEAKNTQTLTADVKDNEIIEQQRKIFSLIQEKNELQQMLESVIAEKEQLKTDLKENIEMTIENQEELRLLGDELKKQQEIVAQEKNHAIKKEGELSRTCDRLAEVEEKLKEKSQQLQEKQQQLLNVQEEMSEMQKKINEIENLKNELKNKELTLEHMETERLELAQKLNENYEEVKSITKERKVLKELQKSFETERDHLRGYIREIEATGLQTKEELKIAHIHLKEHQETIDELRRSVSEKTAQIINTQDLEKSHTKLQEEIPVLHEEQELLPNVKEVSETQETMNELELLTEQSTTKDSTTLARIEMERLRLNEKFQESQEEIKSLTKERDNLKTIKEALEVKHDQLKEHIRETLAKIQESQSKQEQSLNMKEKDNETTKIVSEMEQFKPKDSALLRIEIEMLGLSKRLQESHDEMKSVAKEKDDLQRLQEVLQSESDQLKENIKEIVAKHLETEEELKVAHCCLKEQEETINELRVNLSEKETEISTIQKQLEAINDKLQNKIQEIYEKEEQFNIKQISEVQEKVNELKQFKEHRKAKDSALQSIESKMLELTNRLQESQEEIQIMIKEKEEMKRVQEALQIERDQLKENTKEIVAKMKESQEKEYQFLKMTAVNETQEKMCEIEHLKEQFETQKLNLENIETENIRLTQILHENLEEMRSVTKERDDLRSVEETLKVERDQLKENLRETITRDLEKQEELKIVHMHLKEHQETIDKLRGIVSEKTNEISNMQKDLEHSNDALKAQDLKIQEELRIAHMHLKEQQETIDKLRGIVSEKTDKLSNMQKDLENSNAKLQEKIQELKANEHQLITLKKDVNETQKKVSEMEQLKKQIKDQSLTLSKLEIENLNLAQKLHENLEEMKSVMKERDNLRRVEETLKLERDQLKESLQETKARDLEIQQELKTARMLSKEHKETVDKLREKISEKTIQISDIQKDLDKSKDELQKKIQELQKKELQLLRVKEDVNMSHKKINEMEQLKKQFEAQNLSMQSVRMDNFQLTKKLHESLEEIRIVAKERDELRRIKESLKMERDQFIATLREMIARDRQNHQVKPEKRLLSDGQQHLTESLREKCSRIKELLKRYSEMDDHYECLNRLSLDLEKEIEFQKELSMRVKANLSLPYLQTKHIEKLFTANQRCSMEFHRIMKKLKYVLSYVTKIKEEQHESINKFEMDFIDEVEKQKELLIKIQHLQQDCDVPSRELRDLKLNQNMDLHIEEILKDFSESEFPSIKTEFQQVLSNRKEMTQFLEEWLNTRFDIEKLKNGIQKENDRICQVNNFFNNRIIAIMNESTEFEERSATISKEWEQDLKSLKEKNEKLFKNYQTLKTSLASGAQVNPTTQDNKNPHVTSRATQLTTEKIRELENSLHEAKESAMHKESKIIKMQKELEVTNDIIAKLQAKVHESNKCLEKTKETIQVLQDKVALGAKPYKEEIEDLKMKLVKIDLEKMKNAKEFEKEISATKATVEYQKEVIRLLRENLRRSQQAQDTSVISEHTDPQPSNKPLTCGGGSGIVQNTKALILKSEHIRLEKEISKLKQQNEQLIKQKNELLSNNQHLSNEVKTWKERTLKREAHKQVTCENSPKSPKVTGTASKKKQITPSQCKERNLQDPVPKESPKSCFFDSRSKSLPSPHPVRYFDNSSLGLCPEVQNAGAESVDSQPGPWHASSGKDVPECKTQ

c1ccc(Cn2c(-c3ccc(OC[C@H](C4CCNCC4)n4c(-c5ccccc5)nc5ccccc54)cc3)nc3ccccc32)cc1 [Deltarasin, reference compound]
interaction between mCitrine-KRas and mCherry-PDEδ [1]: abolished the interaction
inhibition at 5 µM [2]: 6%
